# Laboratory results reported in PMC5218480 (PLoS ONE, 2017).
# System: MV-4-11 cells
# Test: Gene expression microarray analysis (Affymetrix PrimeView) and GSEA
# Assay type: cell-based, human
# Parameters: RFU PODN (11730768_x_at) / Fold change /veh PODN (11730768_x_at) / RFU LINC00158 (11744669_a_at) / Fold change /veh LINC00158 (11744669_a_at) / RFU DUSP10 (11751237_a_at) / Fold change /veh DUSP10 (11751237_a_at) / RFU ID3 (11757404_x_at) / Fold change /veh ID3 (11757404_x_at) / RFU PLEKHG5 (11737974_s_at) / Fold change /veh PLEKHG5 (11737974_s_at) / RFU LRRC4B (11730491_at) / Fold change /veh LRRC4B (11730491_at) / RFU GIMAP4 (11747438_a_at) / Fold change /veh GIMAP4 (11747438_a_at) / RFU KRT8 (11758183_x_at) / Fold change /veh KRT8 (11758183_x_at) / RFU CNN1 (11734310_a_at) / Fold change /veh CNN1 (11734310_a_at) / RFU VPS37D (11726825_at) / Fold change /veh VPS37D (11726825_at) / RFU C10orf10 (11716522_x_at) / Fold change /veh C10orf10 (11716522_x_at) / RFU KIR2DL2 /// KIR2DL4 /// KIR2DL5A /// KIR2DL5B /// KIR2DS1 /// KIR2DS2 /// KIR2DS3 /// KIR2DS4 /// KIR3DL3 /// KIR3DL3 /// KIR3DS1 (11738374_at) / Fold change /veh KIR2DL2 /// KIR2DL4 /// KIR2DL5A /// KIR2DL5B /// KIR2DS1 /// KIR2DS2 /// KIR2DS3 /// KIR2DS4 /// KIR3DL3 /// KIR3DL3 /// KIR3DS1 (11738374_at) / RFU C1QL1 (11718748_at) / Fold change /veh C1QL1 (11718748_at) / RFU TMPRSS4 (11747572_a_at) / Fold change /veh TMPRSS4 (11747572_a_at) / RFU HAMP (11756126_x_at) / Fold change /veh HAMP (11756126_x_at) / RFU RNFT2 (11725882_a_at) / Fold change /veh RNFT2 (11725882_a_at) / RFU NR4A2 (11747474_a_at) / Fold change /veh NR4A2 (11747474_a_at) / RFU ABCC12 (11746883_a_at) / Fold change /veh ABCC12 (11746883_a_at) / RFU TMEM136 (11760407_x_at) / Fold change /veh TMEM136 (11760407_x_at) / RFU CLDN22 /// WWC2 (11732394_at) / Fold change /veh CLDN22 /// WWC2 (11732394_at) / RFU HLA-DPB1 (11760878_x_at) / Fold change /veh HLA-DPB1 (11760878_x_at) / RFU SPINT1 (11716480_a_at) / Fold change /veh SPINT1 (11716480_a_at) / RFU GAP43 (11754022_s_at) / Fold change /veh GAP43 (11754022_s_at) / RFU A4GNT (11735810_at) / Fold change /veh A4GNT (11735810_at) / RFU PRB3 (11715151_x_at) / Fold change /veh PRB3 (11715151_x_at) / RFU TUBB4B (11761932_at) / Fold change /veh TUBB4B (11761932_at) / RFU CAPN14 (11732068_a_at) / Fold change /veh CAPN14 (11732068_a_at) / RFU TMCC2 (11721928_a_at) / Fold change /veh TMCC2 (11721928_a_at) / RFU IRGQ (11745062_a_at) / Fold change /veh IRGQ (11745062_a_at) / RFU FAM174B (11720279_a_at) / Fold change /veh FAM174B (11720279_a_at) / RFU TMPRSS4 (11748680_a_at) / Fold change /veh TMPRSS4 (11748680_a_at) / RFU FAM212B (11763350_a_at) / Fold change /veh FAM212B (11763350_a_at) / RFU PLEKHG5 (11743358_a_at) / Fold change /veh PLEKHG5 (11743358_a_at) / RFU ZSCAN30 (11745921_a_at) / Fold change /veh ZSCAN30 (11745921_a_at) / RFU CMKLR1 (11741424_a_at) / Fold change /veh CMKLR1 (11741424_a_at) / RFU LOC101060620 /// MAPK8IP1 (11723275_at) / Fold change /veh LOC101060620 /// MAPK8IP1 (11723275_at) / RFU SPTSSB (11747773_x_at) / Fold change /veh SPTSSB (11747773_x_at) / RFU PRSS12 (11739890_at) / Fold change /veh PRSS12 (11739890_at) / RFU BIN1 (11741810_x_at) / Fold change /veh BIN1 (11741810_x_at) / RFU WNT11 (11732464_a_at) / Fold change /veh WNT11 (11732464_a_at) / RFU C10orf10 (11716521_a_at) / Fold change /veh C10orf10 (11716521_a_at) / RFU C5orf56 (11738089_at) / Fold change /veh C5orf56 (11738089_at) / RFU CYB561 (11721691_x_at) / Fold change /veh CYB561 (11721691_x_at) / RFU ANKRD19P (11752326_a_at) / Fold change /veh ANKRD19P (11752326_a_at) / RFU OR2T12 /// OR2T33 /// OR2T8 (11738714_s_at) / Fold change /veh OR2T12 /// OR2T33 /// OR2T8 (11738714_s_at) / RFU VCAN (11748164_a_at) / Fold change /veh VCAN (11748164_a_at) / RFU JSRP1 (11732532_at) / Fold change /veh JSRP1 (11732532_at) / RFU KRTAP10-11 (11738290_x_at) / Fold change /veh KRTAP10-11 (11738290_x_at) / RFU MYO3A (11730013_a_at) / Fold change /veh MYO3A (11730013_a_at) / RFU EBF3 (11725865_a_at) / Fold change /veh EBF3 (11725865_a_at) / RFU CAMK2N1 (11719241_x_at) / Fold change /veh CAMK2N1 (11719241_x_at) / RFU C5orf56 (11738088_a_at) / Fold change /veh C5orf56 (11738088_a_at) / RFU OLFML3 (11715873_a_at) / Fold change /veh OLFML3 (11715873_a_at) / RFU LOC100653217 /// NTM (11731650_a_at) / Fold change /veh LOC100653217 /// NTM (11731650_a_at) / RFU MAPK11 (11762145_a_at) / Fold change /veh MAPK11 (11762145_a_at) / RFU FIZ1 (11724087_x_at) / Fold change /veh FIZ1 (11724087_x_at) / RFU OASL (11726364_x_at) / Fold change /veh OASL (11726364_x_at) / RFU SOX15 (11748057_x_at) / Fold change /veh SOX15 (11748057_x_at) / RFU CD79A (11719716_a_at) / Fold change /veh CD79A (11719716_a_at) / RFU HIST1H1D (11736915_at) / Fold change /veh HIST1H1D (11736915_at) / RFU CASKIN2 (11723855_a_at) / Fold change /veh CASKIN2 (11723855_a_at) / RFU LOC730098 (11760151_x_at) / Fold change /veh LOC730098 (11760151_x_at) / RFU OR4N2 (11742367_at) / Fold change /veh OR4N2 (11742367_at) / RFU PRRT2 (11749266_a_at) / Fold change /veh PRRT2 (11749266_a_at) / RFU SNX32 (11753110_a_at) / Fold change /veh SNX32 (11753110_a_at) / RFU CDHR5 (11726645_a_at) / Fold change /veh CDHR5 (11726645_a_at) / RFU RCAN1 (11760418_a_at) / Fold change /veh RCAN1 (11760418_a_at) / RFU FAM167A (11723789_a_at) / Fold change /veh FAM167A (11723789_a_at) / RFU FAM26E (11764081_at) / Fold change /veh FAM26E (11764081_at) / RFU ISYNA1 (11749810_s_at) / Fold change /veh ISYNA1 (11749810_s_at) / RFU ACY1 (11761880_at) / Fold change /veh ACY1 (11761880_at) / RFU 11764098_at / Fold change /veh 11764098_at / RFU SAMD14 (11745864_x_at) / Fold change /veh SAMD14 (11745864_x_at) / RFU NPB (11741838_a_at) / Fold change /veh NPB (11741838_a_at) / RFU TMPRSS6 (11731388_a_at) / Fold change /veh TMPRSS6 (11731388_a_at) / RFU KRTAP10-2 (11738614_at) / Fold change /veh KRTAP10-2 (11738614_at) / RFU ARHGAP8 /// PRR5-ARHGAP8 (11727945_x_at) / Fold change /veh ARHGAP8 /// PRR5-ARHGAP8 (11727945_x_at) / RFU KRTAP5-7 /// NADSYN1 (11734609_at) / Fold change /veh KRTAP5-7 /// NADSYN1 (11734609_at) / RFU RASL12 (11751679_a_at) / Fold change /veh RASL12 (11751679_a_at) / RFU CDKN2B (11736163_a_at) / Fold change /veh CDKN2B (11736163_a_at) / RFU PRF1 (11729649_at) / Fold change /veh PRF1 (11729649_at) / RFU, ZNF638 /// ZNF638-IT1 / Fold change vs veh, ZNF638 /// ZNF638-IT1 / RFU, PANK3 / Fold change vs veh, PANK3 / RFU, SH3YL1 / Fold change vs veh, SH3YL1 / RFU, ZEB2 / Fold change vs veh, ZEB2 / RFU, NRIP1 / Fold change vs veh, NRIP1 / RFU, PTTG1IP / Fold change vs veh, PTTG1IP / RFU, CAPN2 / Fold change vs veh, CAPN2 / RFU, MED14 / Fold change vs veh, MED14 / RFU, SNORA58 / Fold change vs veh, SNORA58 / RFU, C1orf63 / Fold change vs veh, C1orf63 / RFU, LRRFIP1 / Fold change vs veh, LRRFIP1 / RFU, NDUFAF7 / Fold change vs veh, NDUFAF7 / RFU, SLC12A2 / Fold change vs veh, SLC12A2 / RFU, IBTK / Fold change vs veh, IBTK / RFU, ESF1 / Fold change vs veh, ESF1 / Fold change vs veh, TMEM50B / RFU, TAOK1 / Fold change vs veh, TAOK1 / RFU, ACBD3 / Fold change vs veh, ACBD3 / RFU, TMA16 / Fold change vs veh, TMA16 / RFU, RWDD3 / Fold change vs veh, RWDD3 / RFU, BCAT1 / Fold change vs veh, BCAT1 / RFU, EDEM3 / Fold change vs veh, EDEM3 / RFU, TMEM33 / Fold change vs veh, TMEM33 / RFU, WDR75 / Fold change vs veh, WDR75 / RFU, AHCTF1 / Fold change vs veh, AHCTF1 / RFU, TFRC / Fold change vs veh, TFRC / RFU, ZDHHC17 / Fold change vs veh, ZDHHC17 / RFU, NOM1 / Fold change vs veh, NOM1 / RFU, ARL8B / Fold change vs veh, ARL8B / RFU, ZBTB11 / Fold change vs veh, ZBTB11 / RFU, TAMM41 / Fold change vs veh, TAMM41 / RFU, KIAA1704 /// LOC100996395 / Fold change vs veh, KIAA1704 /// LOC100996395 / RFU, ING1 / Fold change vs veh, ING1 / RFU, TRMT61B / Fold change vs veh, TRMT61B / RFU, FUBP3 / Fold change vs veh, FUBP3 / RFU, TP53 / Fold change vs veh, TP53 / RFU, TNKS2 / Fold change vs veh, TNKS2 / RFU, ZFP14 / Fold change vs veh, ZFP14 / RFU, ACTR2 / Fold change vs veh, ACTR2 / RFU, PPP3R1 / Fold change vs veh, PPP3R1 / RFU, PIK3R1 / Fold change vs veh, PIK3R1 / RFU, HNRNPA1 / Fold change vs veh, HNRNPA1 / RFU, RNF170 / Fold change vs veh, RNF170 / RFU, ZNF28 / Fold change vs veh, ZNF28 / RFU, RNGTT / Fold change vs veh, RNGTT / RFU, OGT / Fold change vs veh, OGT / RFU, BRD1 / Fold change vs veh, BRD1 / RFU, MARS / Fold change vs veh, MARS / RFU, ZNF655 / Fold change vs veh, ZNF655 / RFU, FAHD1 / Fold change vs veh, FAHD1 / RFU, BDP1 / Fold change vs veh, BDP1 / RFU, LRRCC1 / Fold change vs veh, LRRCC1 / RFU, ARID1A / Fold change vs veh, ARID1A / RFU, ZNF146 / Fold change vs veh, ZNF146 / RFU, ZNF330 / Fold change vs veh, ZNF330 / RFU, GPN3 / Fold change vs veh, GPN3 / RFU, C9orf123 / Fold change vs veh, C9orf123 / RFU, N4BP2L2 / Fold change vs veh, N4BP2L2 / RFU, ARFIP1 / Fold change vs veh, ARFIP1 / RFU, FAM179B / Fold change vs veh, FAM179B / RFU, BCL10 / Fold change vs veh, BCL10 / RFU, UHRF1BP1L / Fold change vs veh, UHRF1BP1L / RFU, BET1 / Fold change vs veh, BET1 / RFU, CNOT2 / Fold change vs veh, CNOT2 / RFU, ZNF268 / Fold change vs veh, ZNF268 / Fold change vs veh, ZNF507 / RFU, DGCR2 / Fold change vs veh, DGCR2 / RFU, WDSUB1 / Fold change vs veh, WDSUB1 / Fold change vs veh, HSP90B1 /// MIR3652 / RFU, ADSS / Fold change vs veh, ADSS / RFU, GK / Fold change vs veh, GK / RFU, ZNF148 / Fold change vs veh, ZNF148 / RFU, TAF9 / Fold change vs veh, TAF9 / RFU, SLC1A5 / Fold change vs veh, SLC1A5 / RFU, SLMO2 / Fold change vs veh, SLMO2 / RFU, ABCC4 / Fold change vs veh, ABCC4 / RFU, LOC101060439 /// RAP1B / Fold change vs veh, LOC101060439 /// RAP1B / RFU, RFX7 / Fold change vs veh, RFX7 / RFU, GTPBP10 / Fold change vs veh, GTPBP10 / RFU, CNEP1R1 / Fold change vs veh, CNEP1R1 / RFU, BIVM-ERCC5 /// ERCC5 / Fold change vs veh, BIVM-ERCC5 /// ERCC5 / RFU, ILF3 / Fold change vs veh, ILF3 / RFU 11762660_at / Fold change /veh 11762660_at / RFU VCAN (11757783_s_at) / Fold change /veh VCAN (11757783_s_at) / RFU DDX43 (11728927_at) / Fold change /veh DDX43 (11728927_at) / RFU KRT8 (11758188_x_at) / Fold change /veh KRT8 (11758188_x_at) / RFU NKD1 (11759106_at) / Fold change /veh NKD1 (11759106_at) / RFU SRD5A1 (11742802_a_at) / Fold change /veh SRD5A1 (11742802_a_at) / RFU TPSAB1 /// TPSB2 (11721975_s_at) / Fold change /veh TPSAB1 /// TPSB2 (11721975_s_at) / RFU GSTM3 (11746129_a_at) / Fold change /veh GSTM3 (11746129_a_at) / RFU IL23R (11737362_x_at) / Fold change /veh IL23R (11737362_x_at) / RFU TMEM51 (11727254_a_at) / Fold change /veh TMEM51 (11727254_a_at) / RFU PIWIL2 (11732686_x_at) / Fold change /veh PIWIL2 (11732686_x_at) / RFU ORM1 (11744905_x_at) / Fold change /veh ORM1 (11744905_x_at) / RFU CCDC152 (11743942_at) / Fold change /veh CCDC152 (11743942_at) / RFU ECM1 (11717891_a_at) / Fold change /veh ECM1 (11717891_a_at) / RFU IL23R (11748794_a_at) / Fold change /veh IL23R (11748794_a_at) / RFU TNFAIP8L3 (11732012_x_at) / Fold change /veh TNFAIP8L3 (11732012_x_at) / RFU MBOAT4 (11741988_at) / Fold change /veh MBOAT4 (11741988_at) / RFU 11764193_at / Fold change /veh 11764193_at / RFU TMEM53 (11763286_at) / Fold change /veh TMEM53 (11763286_at) / RFU MAGEB2 (11727129_at) / Fold change /veh MAGEB2 (11727129_at) / RFU TMEM200A (11744735_a_at) / Fold change /veh TMEM200A (11744735_a_at) / RFU CCDC152 (11751479_a_at) / Fold change /veh CCDC152 (11751479_a_at) / RFU FAM211A (11726209_a_at) / Fold change /veh FAM211A (11726209_a_at) / RFU RGS16 (11746705_a_at) / Fold change /veh RGS16 (11746705_a_at) / RFU VCAN (11755009_s_at) / Fold change /veh VCAN (11755009_s_at) / RFU RHOB (11743442_s_at) / Fold change /veh RHOB (11743442_s_at) / RFU RGS16 (11720943_a_at) / Fold change /veh RGS16 (11720943_a_at) / RFU RGS16 (11720944_at) / Fold change /veh RGS16 (11720944_at) / RFU, VPS4B / Fold change vs veh, VPS4B / RFU, CREB1 / Fold change vs veh, CREB1 / RFU, DNAJC13 / Fold change vs veh, DNAJC13 / RFU, GNAQ / Fold change vs veh, GNAQ / RFU, CDK5R1 / Fold change vs veh, CDK5R1 / RFU, ZRANB3 / Fold change vs veh, ZRANB3 / RFU, CUL4A / Fold change vs veh, CUL4A / RFU, CCNY / Fold change vs veh, CCNY / RFU, UFL1 / Fold change vs veh, UFL1 / RFU, COG3 / Fold change vs veh, COG3 / RFU, DIAPH2 / Fold change vs veh, DIAPH2 / RFU, SKA2 / Fold change vs veh, SKA2 / RFU, AFF3 / Fold change vs veh, AFF3 / RFU, LMF1 / Fold change vs veh, LMF1 / RFU, IPO11 / Fold change vs veh, IPO11 / RFU, DFFB / Fold change vs veh, DFFB / RFU, FOXP1 / Fold change vs veh, FOXP1 / RFU, CARD8 / Fold change vs veh, CARD8 / RFU, STRN3 / Fold change vs veh, STRN3 / RFU, ADK / Fold change vs veh, ADK / RFU, RASSF2 / Fold change vs veh, RASSF2 / RFU, WIPF1 / Fold change vs veh, WIPF1 / RFU, LARP1B / Fold change vs veh, LARP1B / RFU, RASA1 / Fold change vs veh, RASA1 / RFU, RB1 / Fold change vs veh, RB1 / RFU, PPFIA1 / Fold change vs veh, PPFIA1 / RFU, MAT2A / Fold change vs veh, MAT2A / RFU, CCT5 / Fold change vs veh, CCT5 / RFU, WDR92 / Fold change vs veh, WDR92 / RFU, CUX1 / Fold change vs veh, CUX1 / RFU, TTC7A / Fold change vs veh, TTC7A / RFU, TMEM135 / Fold change vs veh, TMEM135 / RFU, DEPTOR / Fold change vs veh, DEPTOR / RFU, CPM / Fold change vs veh, CPM / RFU, DNAJB6 / Fold change vs veh, DNAJB6 / RFU, CACNA2D3 / Fold change vs veh, CACNA2D3 / RFU, DTX4 / Fold change vs veh, DTX4 / RFU, TFCP2 / Fold change vs veh, TFCP2 / RFU, GMCL1 /// GMCL1P1 / Fold change vs veh, GMCL1 /// GMCL1P1 / RFU, AEBP2 / Fold change vs veh, AEBP2 / RFU, SNHG1 /// SNORD22 /// SNORD25 /// SNORD26 /// SNORD27 /// SNORD28 /// SNORD29 /// SNORD31 / Fold change vs veh, SNHG1 /// SNORD22 /// SNORD25 /// SNORD26 /// SNORD27 /// SNORD28 /// SNORD29 /// SNORD31 / Fold change (Aza/veh), C12orf56 (ProbeSet 11735607_a_at) / Fold change (ACY-1035/veh), C12orf56 (ProbeSet 11735607_a_at) / Fold change (Aza/veh), FGFR1OP (ProbeSet 11751329_s_at) / Fold change (ACY-1035/veh), FGFR1OP (ProbeSet 11751329_s_at) / Fold change (Aza/veh), VPS36 (ProbeSet 11739960_a_at) / Fold change (ACY-1035/veh), VPS36 (ProbeSet 11739960_a_at) / RFU SYPL1 (11715823_x_at) / Fold change /veh SYPL1 (11715823_x_at) / RFU IGFBP7 (11715501_s_at) / Fold change /veh IGFBP7 (11715501_s_at) / RFU REEP3 (11722064_at) / Fold change /veh REEP3 (11722064_at) / RFU IGLL1 (11728026_x_at) / Fold change /veh IGLL1 (11728026_x_at): dose or concentration left out as unconfirmed
# Conditions: MV-4-11 cells, 48 hours
structure (smiles),measurement,value
Nc1ncn([C@@H]2O[C@H](CO)[C@@H](O)[C@H]2O)c(=O)n1 [azacitidine],Fold change /veh ZSCAN30 (11745921_a_at),1.18
